In the supplement of paper PMC9763283:

What was measured:
Experiment in all cases: area under growth-rate inhibition curve (AUC GRI) (dimensionless (GR-based AUC)); higher = less growth inhibition
Conditions in all cases: exposure time: 72 h; concentrations: 0.1, 1, 10 uM
BT474-LTR = test system: BT474-LTR
In short: (§1)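 The area under the growth-rate inhibition curve was measured in six breast cancer cell line models, covering triple-negative lines and HER2+ lines, both parental and resistant to a two-drug combination. Cells were exposed to compound at 0.1, 1 or 10 µM for 72 h, fixed in 4% paraformaldehyde, and nuclei were stained with Hoechst 33342 or DAPI for imaging and counting. Day 0 plates, untreated Day 3 plates and DMSO controls served to correct growth across 2 biological replicates.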

MDA-MB-231 = test system: MDA-MB-231
In short: as §1

MDA-MB-468 = test system: MDA-MB-468
In short: as §1

SKBR3-LTR = test system: SKBR3-LTR
In short: as §1

BT474-P = test system: BT474-P
In short: as §1

SKBR3-P = test system: SKBR3-P
In short: as §1

Row | Structure (SMILES) | area under growth-rate inhibition curve (BT474-LTR) | area under growth-rate inhibition curve (MDA-MB-231) | area under growth-rate inhibition curve (MDA-MB-468) | area under growth-rate inhibition curve (SKBR3-LTR) | area under growth-rate inhibition curve (BT474-P) | area under growth-rate inhibition curve (SKBR3-P)
1 | C[NH+]1CCC[C@@H]1CCO[C@](C)(c1ccccc1)c1ccc(Cl)cc1.O=C([O-])/C=C/C(=O)O [Clemastine Fumarate] | 1.02 | 1.02 | 0.932 | 0.958 | 0.941 | 0.898
2 | CCN(CC)CCOc1ccc(C(=C(Cl)c2ccccc2)c2ccccc2)cc1.O=C(O)CC(O)(CC(=O)O)C(=O)O [Clomifene citrate] | 0.876 | 0.915 | 0.94 | 0.941 | 0.796 | 0.914
3 | Cl.Clc1cccc(Cl)c1NC1=NCCN1 [Clonidine HCl] | 1.16 | 1.05 | 1.07 | 1.06 | 1.08 | 1.04
4 | COC(=O)[C@H](c1ccccc1Cl)N1CCc2sccc2C1 [Clopidogrel] | 1.07 | 1 | 1.03 | 1.06 | 1.06 | 1.01
5 | CN1CCN(C2=Nc3cc(Cl)ccc3Nc3ccccc32)CC1 [Clozapine] | 1.09 | 1.04 | 1.03 | 1.07 | 1.06 | 1.01
6 | CN1CCN(C(c2ccccc2)c2ccccc2)CC1.[Cl-].[Cl-].[H+].[H+] [Cyclizine 2HCl] | 1.07 | 1.03 | 1.02 | 1 | 1.03 | 1.01
7 | CN1CCC(=C2c3ccccc3C=Cc3ccccc32)CC1.[Cl-].[H+] [Cyproheptadine HCl] | 1.03 | 1.02 | 1 | 1.09 | 1.03 | 1
8 | CCOc1ccc(Cc2cc([C@@H]3O[C@H](CO)[C@@H](O)[C@H](O)[C@H]3O)ccc2Cl)cc1 [Dapagliflozin] | 1.07 | 1.01 | 1.01 | 1.05 | 1.01 | 1.01
9 | CN(C)[C@@H](CCOc1cccc2ccccc12)c1ccccc1.[Cl-].[H+] [Dapoxetine HCl] | 1.03 | 1.02 | 0.991 | 1.03 | 0.985 | 0.974
10 | C[N+](C)(C)CCCCCCCCCC[N+](C)(C)C.[Br-].[Br-] [Decamethonium Bromide] | 1.1 | 1.04 | 1.03 | 1.04 | 1.06 | 1.03
